This assay deals with T1, PD-1/PD-L1 (Homo sapiens, UniProt Q9NZQ7).
T1 construct: TVMV protease site linker (C); made in house; host or cells: HEK293T cells
The experiment in a line: PD-1/PD-L1 Homogenous Time-Resolved Fluorescence (HTRF) binding assay. To be noted: PD-L1-His 10 nM, PD-1-Ig 20 nM. The procedure, abridged: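 Inhibitors pre-incubated 15 min with PD-L1-His extracellular domain (10 nM final) in dPBS with 0.1% BSA and 0.05% Tween-20, then PD-1-Ig (20 nM final) added for a further 15 min. Read-out by HTRF with europium cryptate anti-Ig (1 nM) and APC anti-His (20 nM). Related pairs: PD-1-Ig/PD-L2-His (20/5 nM), CD80-His/PD-L1-Ig (100/10 nM).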
In general terms: TR-FRET usually uses a lanthanide donor and a delayed reading to cut background.

T1 sequence (Q9NZQ7 18-239): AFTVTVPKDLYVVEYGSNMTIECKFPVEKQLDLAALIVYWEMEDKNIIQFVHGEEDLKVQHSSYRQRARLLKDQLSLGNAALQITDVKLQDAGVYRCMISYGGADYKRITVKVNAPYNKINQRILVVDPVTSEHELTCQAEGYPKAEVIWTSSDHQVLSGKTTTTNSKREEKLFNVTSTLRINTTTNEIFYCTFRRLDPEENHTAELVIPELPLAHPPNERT

As for `Cc1c(COc2cc(OCc3cncc(C#N)c3)c(CNCc3cn[nH]n3)cc2Cl)cccc1-c1cccc(OCC2CCCN(CCC(F)(F)F)C2)c1Cl` (stereo not drawn) [Example 2068, 5-((2-((((2H-1,2,3-triazol-4-yl)methyl)amino)methyl)-4-chloro-5-((2′-chloro-2-methyl-3′-((1-(3,3,3-trifluoropropyl)piperidin-3-yl)methoxy)-[1,1′-biphenyl]-3-yl)methoxy)phenoxy)methyl)nicotinonitrile], the half-inhibitory concentration (IC50) (as a rule, the concentration needed to halve the response being measured) worked out at 89.6 nM. Regarding `Cc1c(COc2cc(OCc3cncc(C#N)c3)c(CN(C)Cc3cccnc3)cc2Cl)cccc1-c1cccc(OCCCN2CC[C@@H](O)C2)c1C` [Example 2501, (R)-5-((4-chloro-5-((3′-(3-(3-hydroxypyrrolidin-1-yl)propoxy)-2,2′-dimethyl-[1,1′-biphenyl]-3-yl)methoxy)-2-((methyl(pyridin-3-ylmethyl)amino)methyl)phenoxy)methyl)nicotinonitrile], the IC50 was determined as 2.3 nM. For `Cc1c(COc2cc(OCc3cncc(C#N)c3)c(CN3CCc4c(ncn4C)C3)cc2Cl)cccc1-c1cccc(OCCCN2CC[C@@H](O)C2)c1C` [Example 2502] the value was 0.9 nM.

For `Cc1nc2c(s1)CN(Cc1cc(Cl)c(OCc3cccc(-c4cccc(OCCCN5CC[C@@H](O)C5)c4C)c3C)cc1OCc1cncc(C#N)c1)CC2` [Example 2503, (R)-5-((4-chloro-5-((3′-(3-(3-hydroxypyrrolidin-1-yl)propoxy)-2,2′-dimethyl-[1,1′-biphenyl]-3-yl)methoxy)-2-((2-methyl-6,7-dihydrothiazolo[5,4-c]pyridin-5(4H)yl)methyl)phenoxy)methyl)nicotinonitrile], the IC50 stood at 3.9 nM. `Cc1ncsc1CCNCc1cc(Cl)c(OCc2cccc(-c3cccc(OCCCN4CC[C@@H](O)C4)c3C)c2C)cc1OCc1cncc(C#N)c1` [Example 2504, (R)-5-((4-chloro-5-((3′-(3-(3-hydroxypyrrolidin-1-yl)propoxy)-2,2′-dimethyl-[1,1′-biphenyl]-3-yl)methoxy)-2-(((2-(4-methylthiazol-5-yl)ethyl)amino)methyl)phenoxy)methyl)nicotinonitrile] displayed an IC50 of 1.8 nM. `Cc1c(COc2cc(OCc3cncc(C#N)c3)c(CNCCc3nc4ccccc4[nH]3)cc2Cl)cccc1-c1cccc(OCCCN2CC[C@@H](O)C2)c1C` [Example 2505, (R)-5-((2-(((2-(1H-benzo[d]imidazol-2-yl)ethyl)amino)methyl)-4-chloro-5-((3′-(3-(3 hydroxypyrrolidin-1-yl)propoxy)-2,2′-dimethyl-[1,1′-biphenyl]-3yl)methoxy)phenoxy)methyl)nicotinonitrile] came in with an IC50 of 6.7 nM.

`Cc1c(COc2cc(OCc3cncc(C#N)c3)c(CNCCc3cscn3)cc2Cl)cccc1-c1cccc(OCCCN2CC[C@@H](O)C2)c1C` [Example 2506, (R)-5-((4-chloro-5-((3′-(3-(3-hydroxypyrrolidin-1-yl)propoxy)-2,2′-dimethyl-[1,1′-biphenyl]-3-yl)methoxy)-2-(((2-(thiazol-4-yl)ethyl)amino)methyl)phenoxy)methyl)nicotinonitrile] had an IC50 of 0.4 nM. Consider `Cc1c(COc2cc(OCc3cncc(C#N)c3)c(CN(C)CCc3cscn3)cc2Cl)cccc1-c1cccc(OCCCN2CC[C@@H](O)C2)c1C` [Example 2507, (R)-5-((4-chloro-5-((3′-(3-(3-hydroxypyrrolidin-1-yl)propoxy)-2,2′-dimethyl-[1,1′-biphenyl]-3-yl)methoxy)-2-((methyl(2-(thiazol-4-yl)ethyl)amino)methyl)phenoxy)methyl)nicotinonitrile], for which the IC50 turned out to be 1.7 nM.

`Cc1c(COc2cc(OCc3cncc(C#N)c3)c(CN(C)CCc3nc4ccccc4[nH]3)cc2Cl)cccc1-c1cccc(OCCCN2CC[C@@H](O)C2)c1C` [Example 2508, (R)-5-((2-(((2-(1H-benzo[d]imidazol-2-yl)ethyl)(methyl)amino)methyl)-4-chloro-5-((3′-(3-(3-hydroxypyrrolidin-1-yl)propoxy)-2,2′-dimethyl-[1,1′-biphenyl]-3-yl)methoxy)phenoxy)methyl)nicotinonitrile] gave an IC50 of 6.2 nM.

These data come from patent US20240124417A1, “COMPOUNDS USEFUL AS IMMUNOMODULATORS” (Bristol-Myers Squibb Company, priority 2019, published 2024).
